From patent US5637625A, “Propofol microdroplet formulations” (Research Triangle Pharmaceuticals Ltd., priority 1996, dated 1997)

How the values were obtained:
[1] = cited from earlier work
laboratory rats = test: Efficacy for general anesthesia in rats (i.v. tail vein), with mortality; type: in vivo, female CD laboratory rats; conditions: 20-21 mg/kg
Procedure: Diprivan® (Diprivan® 1%, Injection propofol, 10 mg/ml, Emulsion for I.V. Administration, Stuart Pharmaceuticals) was purchased. It is described by the manufacturer as a sterile, nonpyrogenic emulsion containing 10 mg/mL propofol, 100 mg/ml soybean oil, 12 mg/mL lecithin in an aqueous vehicle. It was maintained at room temperature as described by the manufacturer. Samples were taken using aseptic technique.
Lecithin-coated propofol microdroplets containing 6.8% propofol and Diprivan® were injected into the tail veins of 150 gram female CD laboratory rats (Charles River Laboratories, Wilmington, Mass.) restrained in a Decapicone® (Braintree Scientific, Braintree, Mass.). The volumes of 6.8% (w/v) microdroplet propofol injected were 10, 20, 30 or 50 μL. The injections were accomplished in 2-3 seconds. Volumes of 1% Diprivan® injections were 100, 200, 300 or 500 μL. The injections were accomplished in 5-15 seconds. The animals were observed during the injections, and the time required for loss of consciousness ("time to unconsciousness") was recorded. Then the animals were removed from the Decapicone® and placed on their sides and were tested for startle response to a loud clap. […] The time to regain startle response ("time to startle response") was recorded. The time to recover the righting response, indicated by spontaneous attempt to stand, was also measured. […]

[2] = pure oily state; cited from earlier work

Structure (SMILES): CC(C)c1cccc(C(C)C)c1O [Propofol, 2,6-diisopropylphenol]
- Water solubility [1]: water-insoluble
- Mortality (in words) (laboratory rats): significant mortality
- Irritancy [2]: irritant
